{"source": "PubChem BioAssay AID1259409", "about": "(Chemical Carcinogenesis Research Information System (CCRIS), 2018)", "origin": "cited, not measured here", "system": "rodent chemically induced tumor inhibition, incidence and multiplicity", "experiment": "CCRIS tumor inhibitor studies", "conditions": "Carcinogen: 7,12-DIMETHYLBENZ[A]ANTHRACENE, 57-97-6, Route [Inhibitor]: DERMAL, Species: MOUSE", "note": "“And” between values parts separate entries of the source, which are not always exact repeats. Equal entries are not always repeated."}
{"smiles": "CC(=O)OC12C[C@@H](C)[C@@]3(O)[C@@H](C=C(CO)C[C@]4(O)C(=O)C(C)=C[C@@H]34)C1C2(C)C", "note": "(stereo partly drawn)", "values": [{"measurement": "tumour outcome (control, treated, inhibition, significance)", "setting": "Dose [Inhibitor]: 0, 256 NMOL 15 D POST INITIATION DOSE FOLLOWED BY 2.56 NMOL 2/WK DURING WK 3-22 APPLIED 15 MIN PRIOR TO EACH PROMOTION D, Strain/Sex: CD-1/FEMALE, Target Tissue: Type of Lesion: SKIN: PAPILLOMA, Dose [Carcinogen]: 20 NMOL IN 200 µL ACETONE ONCE", "result": "100%, 95%, 5%, not calculated"}, {"measurement": "tumour outcome (control, treated, inhibition, significance)", "setting": "Dose [Inhibitor]: 0, 256 NMOL 15 D POST INITIATION DOSE FOLLOWED BY 2.56 UMOL 2/WK DURING WK 3-22 APPLIED 15 MIN PRIOR TO EACH PROMOTION D, Strain/Sex: CD-1/FEMALE, Target Tissue: Type of Lesion: SKIN: PAPILLOMA, Dose [Carcinogen]: 20 NMOL IN 200 µL ACETONE ONCE", "result": "94%, 40%, 57%, not calculated"}, {"measurement": "tumour outcome (control, treated, inhibition, significance)", "setting": "Dose [Inhibitor]: 0, 256 NMOL 15 D POST INITIATION DOSE FOLLOWED BY 25.6 NMOL 2/WK DURING WK 3-22 APPLIED 15 MIN PRIOR TO EACH PROMOTION D, Strain/Sex: CD-1/FEMALE, Target Tissue: Type of Lesion: SKIN: PAPILLOMA, Dose [Carcinogen]: 20 NMOL IN 200 µL ACETONE ONCE", "result": "94%, 83%, 12%, not calculated and 100%, 80%, 20%, not calculated"}, {"measurement": "tumour outcome (control, treated, inhibition, significance)", "setting": "Dose [Inhibitor]: 0, 256 NMOL 15 D POST INITIATION DOSE FOLLOWED BY 25.6 PMOL 2/WK DURING WK 3-22 APPLIED 15 MIN PRIOR TO EACH PROMOTION D, Strain/Sex: CD-1/FEMALE, Target Tissue: Type of Lesion: SKIN: PAPILLOMA, Dose [Carcinogen]: 20 NMOL IN 200 µL ACETONE ONCE", "result": "100%, 97%, 3%, not calculated"}, {"measurement": "tumour outcome (control, treated, inhibition, significance)", "setting": "Dose [Inhibitor]: 0, 256 NMOL 15 D POST INITIATION DOSE FOLLOWED BY 256 NMOL 2/WK DURING WK 3-22 APPLIED 15 MIN PRIOR TO EACH PROMOTION DO, Strain/Sex: CD-1/FEMALE, Target Tissue: Type of Lesion: SKIN: PAPILLOMA, Dose [Carcinogen]: 20 NMOL IN 200 µL ACETONE ONCE", "result": "94%, 33%, 65%, not calculated and 100%, 58%, 42%, not calculated"}, {"measurement": "tumour outcome (control, treated, inhibition, significance)", "setting": "Dose [Inhibitor]: 0, 256 NMOL 15 D POST INITIATION DOSE FOLLOWED BY 256 PMOL 2/WK DURING WK 3-22 APPLIED 15 MIN PRIOR TO EACH PROMOTION DO, Strain/Sex: CD-1/FEMALE, Target Tissue: Type of Lesion: SKIN: PAPILLOMA, Dose [Carcinogen]: 20 NMOL IN 200 µL ACETONE ONCE", "result": "100%, 100%, 0%, not significant"}]}
{"smiles": "C=C(NC(=O)Cc1ccc(OS(=O)(=O)O)cc1)C(=O)O", "values": [{"measurement": "tumour outcome (control, treated, inhibition, significance)", "setting": "Dose [Inhibitor]: 0, 1 MMOL 15 MINUTES AFTER EACH PROMOTER TREATMENT BEGINNING 2 WK POST CARCINOGEN (STUDY DURATION: 42 WK), Strain/Sex: SENCAR/FEMALE, Target Tissue: Type of Lesion: SKIN: SQUAMOUS CELL CARCINOMA, Dose [Carcinogen]: 10 NMOL IN 0.2 ML ACETONE ONCE", "result": "48%, 25%, 48%, not calculated"}]}
{"smiles": "Brc1c(Br)c(Br)c2c(c1Br)Oc1c(Br)c(Br)c(Br)c(Br)c1O2", "values": [{"measurement": "tumour outcome (control, treated, inhibition, significance)", "setting": "Dose [Inhibitor]: 0, 17 NMOL 2/WK APPLIED 1 HR PRIOR TO EACH PROMOTER DOSE FOR 20 WK (STUDY DURATION: 21 WK), Target Tissue: Type of Lesion: SKIN: TUMOR, Dose [Carcinogen]: 390 NMOL ONCE, Promoter: 12-O-TETRADECANOYLPHORBOL-13-ACETATE, 16561-29-8", "result": "100%, 93%, 7%, not calculated"}]}
{"smiles": "C/C(=C\\c1ccc(C(=O)O)cc1)c1ccc2c(c1)C(C)(C)CCC2(C)C", "values": [{"measurement": "tumour outcome (control, treated, inhibition, significance)", "setting": "Dose [Inhibitor]: 0.17 NMOL IN 0.2 ML ACETONE 1 HR PRIOR TO EACH PROMOTER DOSE FOR 12 WK (STUDY DURATION: 14 WK), Strain/Sex: SENCAR/FEMALE, Target Tissue: Type of Lesion: SKIN: PAPILLOMA, Dose [Carcinogen]: 200 NMOL IN 0.2 ML ACETONE ONCE, Promoter: 12-O-TETRADECANOYLPHORBOL-13-ACETATE, 16561-29-8", "result": "100%, 100%, 0%, not calculated"}, {"measurement": "tumour outcome (control, treated, inhibition, significance)", "setting": "Dose [Inhibitor]: 0.17 NMOL IN 0.2 ML ACETONE 1 HR PRIOR TO EACH PROMOTER DOSE FOR 20 WK (STUDY DURATION: 22 WK), Strain/Sex: CD-1/FEMALE, Target Tissue: Type of Lesion: SKIN: PAPILLOMA, Dose [Carcinogen]: 200 NMOL IN 0.2 ML ACETONE ONCE, Promoter: 12-O-TETRADECANOYLPHORBOL-13-ACETATE, 16561-29-8", "result": "94%, 80%, 15%, not calculated"}, {"measurement": "tumour outcome (control, treated, inhibition, significance)", "setting": "Dose [Inhibitor]: 1.7 NMOL IN 0.2 ML ACETONE 1 HR PRIOR TO EACH PROMOTER DOSE FOR 12 WK (STUDY DURATION: 14 WK), Strain/Sex: SENCAR/FEMALE, Target Tissue: Type of Lesion: SKIN: PAPILLOMA, Dose [Carcinogen]: 200 NMOL IN 0.2 ML ACETONE ONCE, Promoter: 12-O-TETRADECANOYLPHORBOL-13-ACETATE, 16561-29-8", "result": "100%, 78%, 22%, not calculated"}, {"measurement": "tumour outcome (control, treated, inhibition, significance)", "setting": "Dose [Inhibitor]: 1.7 NMOL IN 0.2 ML ACETONE 1 HR PRIOR TO EACH PROMOTER DOSE FOR 20 WK (STUDY DURATION: 22 WK), Strain/Sex: CD-1/FEMALE, Target Tissue: Type of Lesion: SKIN: PAPILLOMA, Dose [Carcinogen]: 200 NMOL IN 0.2 ML ACETONE ONCE, Promoter: 12-O-TETRADECANOYLPHORBOL-13-ACETATE, 16561-29-8", "result": "94%, 31%, 67%, not calculated"}, {"measurement": "tumour outcome (control, treated, inhibition, significance)", "setting": "Dose [Inhibitor]: 17 NMOL IN 0.2 ML ACETONE 1 HR PRIOR TO EACH PROMOTER DOSE FOR 12 WK (STUDY DURATION: 14 WK), Strain/Sex: SENCAR/FEMALE, Target Tissue: Type of Lesion: SKIN: PAPILLOMA, Dose [Carcinogen]: 200 NMOL IN 0.2 ML ACETONE ONCE, Promoter: 12-O-TETRADECANOYLPHORBOL-13-ACETATE, 16561-29-8", "result": "100%, 0%, 100%, not calculated"}]}
